“And” between values parts separate entries of the source, which are not always exact repeats. Equal entries are not always repeated. Where two headings read alike, the source gives them in different places.
What was measured:
[1] = Estimation of solubility in various solvents by step-wise solvent addition; format: physicochemical
Procedure: Samples of 1-2 mg of Compound I phosphate (lot 35282-CS-51) were transferred to 10 mL glass vials (tared) and were weighed (accurate to 0.1 mg). Solvents were added to the vials (one solvent to each vial) in a step-wise fashion, with 0.5 mL of solvent added at each step. Solvents used were buffer (pH=2), buffer (pH=5), water, methanol, tetrahydrofuran (THF), acetonitrile, and acetone. After each addition, the vial was capped and shaken. The dissolution of solid was visually observed. If no obvious dissolution was observed, more solvent was added immediately. If dissolution was apparent, the vial was left on the bench for at least 30 minutes before the next addition of solvent. This step was repeated until no crystals were visible against a black and a white background. The solubility was then bracketed by dividing the weight of the compound by the final volume and the volume before the last addition. If a solid remained after the addition of 10 mL of solvent, the solubility was expressed as less than the weight divided by the final volume. If the solid was completely dissolved after the first addition of solvent, the solubility was expressed as greater than the weight divided by the solvent volume. All experiments were conducted at room temperature.

[2] = system: recurrent mast cell tumors; assay: Multicenter, placebo-controlled, double blind, randomized study in dogs with recurrent mast cell tumors; format: in vivo
Procedure: Purpose. The effectiveness of Compound I phosphate oral tablets for the treatment of mast cell tumors in client-owned animals that had recurrent measurable disease after surgery was evaluated in a masked, negative controlled study. The study evaluated every-other-day dosing of Compound I phosphate at 3.25 mg free base equivalents (FBE)/kg body weight on disease response using modified (RECIST) criteria of response. The presence or absence of c-kit mutation in mast cell tumors was evaluated as a covariate in this study. For decision-making purposes, the duration of the study was 6 weeks.
One-hundred-fifty-three (153) dogs were randomized in a ratio of 4:3 into one of two treatment groups: T01 (Placebo in which n=65) and T02 (Compound I phosphate in which n=88). Ten veterinary oncology practices in the United States were selected and enrolled cases. For enrollment, dogs had to have recurrent mast cell tumor (at least one target lesion had to have a minimum longest diameter of 20 mm)±regional lymph node involvement. A maximum of three target lesions (measurable mast cell tumors) and all non-target lesions (all remaining lesions, measurable or un-measurable) were identified at baseline by two evaluators. Efficacy was based on the objective response (complete response or partial response) at the week 6 visit where the mean of the two evaluators sum of the longest diameter of target lesions (Mean Sum LD) was compared to the Baseline Mean Sum LD for calculation of percent reduction or increase. Assessment of non-target lesions was subjective. A complete response (CR) was defined as the disappearance of all target and non-target lesions and the appearance of no new lesions; a partial response (PR) was defined as at least a 30% decrease in the Mean Sum LD of target lesions compared to the Baseline Mean Sum LD and non-progression of non-target lesions and appearance of no new lesions. Tissue samples from the tumor and distant normal skin were collected prior to randomization and submitted for the assessment of c-kit mutation status.

[3] = Compound I phosphate plasma levels in dogs with mast cell tumors (LC/MS/MS); format: in vivo, canine; settings: for concentration at 8 h / Cmax at 8 h: dog, plasma, oral; for Cmax at 8 h: dogs
Procedure: Study Design. This study was a proof of target modulation study in dogs with recurrent or metastatic grade MCTs. Patients received a single oral dose of Compound I phosphate at 3.25 mg/kg. Using a 6-mm punch biopsy instrument, samples were obtained from the tumor before Compound I phosphate administration and 8 hours (h) after treatment. When possible, multiple biopsies were taken. Each sample was flash frozen in liquid nitrogen and stored at −70° centigrade (C) before analysis. Blood samples for analysis of plasma levels of Compound I phosphate were obtained at the same time as tumor biopsies (see below).
Compound I Phosphate Plasma Levels. Blood samples were drawn from the jugular vein and placed into a red-top serum collection vacuum glass tube. Specimens were kept at room temperature, allowed to clot, centrifuged at 1500 rpm at 4° C. for 10 minutes, transferred to cryovials, and plasma frozen at −70° C. pending analysis. Briefly, plasma samples (20 μl) or Compound I phosphate standards in canine plasma were mixed with methanol (200 μl) containing DL-propranolol hydrochloride (internal standard) in a 96-well polypropylene plate (Orochem Technology, Westmont, Ill.). The plate was mixed by vortex for 1 min, and the samples were centrifuged for 10 min at 4000 rpm. Ten microliters of the supernatant were injected onto the LC/MS/MS system, in which separation occurred on a BataBasic C-18 (5 μm, 100×4.6 mm) reverse-phase high-performance liquid chromatography column (Keystone Scientific, Foster City, Calif.). The amount of Compound I phosphate and the internal standard in each canine plasma sample were quantified based on standard curves generated using known amounts of compound ranging from 0.2 to 500 ng/ml.

Question: What does the source list for `Cc1[nH]c(/C=C2\C(=O)Nc3ccc(F)cc32)c(C)c1C(=O)NCCN1CCCC1` [Compound I phosphate]?
Answer: Estimated solubility ([1]; Acetone, 23° C.): <<<0.2 mg/mL; Estimated solubility ([1]; Acetonitrile, 23° C.): <<<0.13 mg/mL; Estimated solubility ([1]; THF, 23° C.): <<<0.19 mg/mL; solubility ([1]; buffer (pH 2), pH 2, at pH 2 or lower, read-out: solubility): > 3000 µg/mL; solubility ([1]; buffer (pH 2, HCl and KCl), 23 °C, pH 2, aqueous buffer, thermodynamic from solid, buffer (pH = 2, HCl and KCl), 23° C., read-out: Estimated solubility): 5900 to 7400 µg/mL; Estimated solubility ([1]; methanol, 23° C.): ~0.14 mg/mL; solubility ([1]; water, 23 °C, pH 4.91, water, thermodynamic from solid, water, 23° C., final solution pH 4.91, read-out: Estimated solubility): ~290 µg/mL; animals that experienced progressive disease ([2]; 3.25 mg FBE/kg every other day, 6 weeks, 29/86): 33.7%; objective response rate (complete or partial response) ([2]; 3.25 mg FBE/kg every other day, oral tablets, week 6, 33/86): 38.3%; objective response, dogs positive for the c-kit mutation ([2]; T02 group, 12/20): 60%; objective response, dogs negative for the c-kit mutation ([2]; T02 group, 21/64): 32.8%; concentration at 8 h ([3]; 3.25 mg/kg, single dose at 3.25 mg/kg, 8 h, read-out: average plasma concentration for dogs that did not score for KIT target modulation): 137 ± 36 ng/mL; concentration at 8 h ([3]; 3.25 mg/kg, single dose at 3.25 mg/kg, 8 h, read-out: average plasma concentration for dogs with evidence of KIT target modulation): 79.2 ± 41 ng/mL; Cmax at 8 h ([3]; 3.25 mg/kg, single dose at 3.25 mg/kg, read-out: plasma concentration at 8 h (approximately Cmax), average): 105 ± 9 ng/mL; Cmax at 8 h ([3]; 3.25 mg/kg, single dose at 3.25 mg/kg, read-out: plasma concentration at 8 h (approximately Cmax), range over dogs): 33.2 to 186 ng/mL; Plasma Compound I phosphate postdose ([3]; individual dogs, single oral dose 3.25 mg/kg, 8 h after dosing, 3.25 mg/kg): 0.3 ng/mL and 83.5 ng/mL and 98.0 ng/mL and 116.0 ng/mL and 121.0 ng/mL and 186.0 ng/mL and 103.0 ng/mL and 111.0 ng/mL and 158.0 ng/mL and 65.3 ng/mL and 95.4 ng/mL and 119.0 ng/mL and 81.0 ng/mL and 33.2 ng/mL; dogs with plasma levels considered to be in the therapeutic range ([3]; single dose at 3.25 mg/kg, 8 h): Twelve
